Assay results taken from patent publication US7314959B2, “Amino thiol compounds and compositions for use in conjunction with cancer therapy” (Wisconsin Alumni Research Foundation, priority 2003, dated 2008).

Columns and labels:
[1] = test system: radiation-induced dermatitis on backs of rats; experiment: Radiation-induced dermatitis in rat skin model; assay type: in vivo
[2] = test system: A431 human epidermoid cells (xenograft in nude mice); experiment: Effect of topical drug on killing of tumor xenograft by external beam γ irradiation; assay type: in vivo, mouse; conditions: topical dose 5-times higher than standard regimen, adjacent to xenograft; 6.2 Gy
Method: Briefly, athymic nude mice (nu/nu, 6-7 weeks, Harlan Labs) were housed in cages containing autoclaved bedding and received autoclaved food and water. Cages were maintained in a sterile laminar flow hood. Mice received a single, sc injection of tumor cells (6.5×10^6, A431; 2.5×10^6, L1210) suspended in 200 ul of serum-free DMEM.
After three days, mice were treated with topical drug in vehicle or vehicle alone. PrC-210 was formulated in a 50:30:20 vehicle (ethanol:PG (propylene glycol):water, adjusted to pH 6.5 with NaOH), and mice received four topical applications over two hours (at −2 hr, −1 hr, −30 min and −10 min, irradiation was at 0 min). 18-20 gm nude mice received topical treatments of 13 ul, 11 ul, 11 ul and 11 ul (total=46 ul) applied to a roughly 1 cm×1.5 cm area on the right flank, which was adjacent to the tumor xenograft. For these tumor xenograft experiments, a 5-fold increase in drug concentration over the minimum effective concentration previously shown to prevent radiodermatitis was tested.
With the last topical drug application, at −10 min, the mice also received an ip injection of Nembutal (65 ug/gm b.w.). […]
Growth of the xenograft tumors was monitored by vernier caliper measurements every 1-2 days for the 18-21 days following irradiation. […]

In the case of `CNCC(CS)CNC` [PrC-210, 3-methylamino-2-methylaminomethyl-propane-1-thiol], the “dose for complete protection in 0:95:5 vehicle relative to 50:30:20 vehicle” value ([1]; 0:95:5 versus 50:30:20 ethanol:PG:water) was “about 10 times”, the “Dermatitis Score (% of irradiated field free of scab material)” value ([1]; 370 mM, vehicle 0:95:5, Experiment 440-443) was <50% and the “Dermatitis Score (% of irradiated field free of scab material)” value ([1]; 370 mM, vehicle 50:30:20, Experiment 574-577) was 100 ± 0%. For the same compound, the “Dermatitis Score (% of irradiated field free of scab material)” value ([1]; 370 mM, vehicle 50:30:20, Experiment 643-646) was 98 ± 3%, the “Dermatitis Score (% of irradiated field free of scab material)” value ([1]; 740 mM, vehicle 0:95:5 ethanol:prop. glycol:water, Experiment 440-443) was 68% and the “Dermatitis Score (% of irradiated field free of scab material)” value ([1]; 740 mM, vehicle 50:30:20, Experiment 626-629) was 96 ± 3%. For the same compound, the “Dermatitis Score (% of irradiated field free of scab material)” value ([1]; 740 mM, vehicle 50:30:20, Experiment 643-646) was 96 ± 4%, the “Dermatitis Score (% of irradiated field free of scab material)” value ([1]; 900 mM PrC-210, vehicle 0:95:5, cage 440, 8.7 Gy) was 68 ± 10% and the “Dermatitis Score (% of irradiated field free of scab material)” value ([1]; 1200 mM PrC-210, vehicle 0:95:5, cage 441) was 95 ± 5%. The “concentration conferring complete protection against radiation-induced dermatitis” value ([1]; 95:5 PG:water vehicle) was 1200 to 1500 mM, the “concentration of topical aminothiol alone conferring complete protection against radiodermatitis” value ([1]; aminothiol alone, without epinephrine, 8.7 Gy) was ~1200 mM and the “dose required for complete protection (100% Clear Skin) against radiodermatitis” value ([1]; vehicle 0:95:5 ethanol:PG:water) was ~24 mg/cm skin. For the same compound, the “applied dose conferring complete protection against radiation-induced dermatitis” value ([1]; vehicle 50:30:20 ethanol:PG:water) was 2.8 mg/cm^2 skin, the “concentration conferring complete protection against radiation-induced dermatitis” value ([1]; vehicle 50:30:20 ethanol:PG:water, total applied volume 105 ul) was 370 mM and the “effect upon killing of tumor cells by external beam γ irradiation” value [2] was “no discernible effect”.
